Results: patent publication US20150011751A1, “NOVEL TRIAZINE DERIVATIVE” (CARNA BIOSCIENCES, INC., priority 2012, published 2015)

Target: Dephosphorylated BTK (Homo sapiens, UniProt Q06187)
Assay: Test of activity inhibition against dephosphorylated BTK (mobility shift assay)

Chain of Dephosphorylated BTK (Q06187 whole entry): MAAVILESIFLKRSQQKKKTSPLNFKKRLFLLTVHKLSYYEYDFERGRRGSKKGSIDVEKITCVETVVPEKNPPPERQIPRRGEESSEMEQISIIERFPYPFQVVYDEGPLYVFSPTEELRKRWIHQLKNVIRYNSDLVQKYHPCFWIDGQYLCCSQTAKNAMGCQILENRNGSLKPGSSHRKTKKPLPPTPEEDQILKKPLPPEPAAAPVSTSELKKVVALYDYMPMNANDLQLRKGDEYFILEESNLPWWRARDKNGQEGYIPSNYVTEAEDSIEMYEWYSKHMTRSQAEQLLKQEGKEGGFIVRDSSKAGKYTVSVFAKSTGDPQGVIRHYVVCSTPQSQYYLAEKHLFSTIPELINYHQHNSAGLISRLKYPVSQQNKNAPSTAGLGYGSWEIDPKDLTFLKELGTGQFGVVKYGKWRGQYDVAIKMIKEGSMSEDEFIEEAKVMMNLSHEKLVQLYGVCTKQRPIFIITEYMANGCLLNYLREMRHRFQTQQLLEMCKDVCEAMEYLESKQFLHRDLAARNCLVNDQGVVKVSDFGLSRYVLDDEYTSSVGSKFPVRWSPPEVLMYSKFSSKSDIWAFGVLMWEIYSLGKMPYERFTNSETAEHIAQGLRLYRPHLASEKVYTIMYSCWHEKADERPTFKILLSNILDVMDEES

SMILES | IC50
Cc1c(NC(=O)c2ccc(C(C)(C)C)cc2)cccc1-c1ncnc(Nc2ccc(C(=O)NC(CO)CO)cc2)n1 [Example 19, 4-(tert-Butyl)-N-{3-[4-({4-[(1,3-dihydroxypropan-2-yl)carbamoyl]phenyl}amino)-1,3,5-triazin-2-yl]-2-methyl-phenyl}benzamide] | 6.1 nM
Cc1c(NC(=O)c2ccc(C(C)(C)C)cc2)cccc1-c1ncnc(Nc2ccc(N3CCOCC3)cc2)n1 [Example 24, 4-(tert-Butyl)-N-(2-meth-yl-3-{4-[(4-morpho-linophenyl)amino]-1,3,5-triazin-2-yl}phenyl) benzamide] | 3.4 nM
Cc1c(NC(=O)c2ccc(C(C)(C)C)cc2)cccc1-c1ncnc(Nc2ccc(CN3CCOCC3)cc2)n1 [Example 25, 4-(tert-Butyl)-N-[2-meth-yl-3-(4-{[4-(morpho-linomethyl)phenyl]ami-no}-1,3,5-triazin-2-yl)phenyl]benzamide] | 3.5 nM
COCCOc1ccc(Nc2nc(N)nc(-c3cccc(NC(=O)c4ccc(C(C)(C)C)cc4)c3C)n2)cc1 [Example 34, N-[3-(4-Amino-6-{[4-(2-methoxyethoxy)phenyl]amino}-1,3,5-triazin-2-yl)-2-methylphenyl]-4-(tert-butyl)benz-amide] | 4 nM
Cc1c(NC(=O)c2ccc(C(C)(C)C)cc2)cccc1-c1ncnc(Nc2ccc(C3C(=O)N(C)CCN3C)cc2)n1 (stereo not shown) [Example 37, 4-(tert-Butyl)-N-[3-(4-{[4-(1,4-dimethyl-3-oxopiperazin-2-yl)phe-nyl]amino}-1,3,5-tri-azin-2-yl)-2-methyl-phenyl]benzamide] | 2.7 nM
Cc1c(-c2nc(N)nc(Nc3ccc(C(=O)N4CCOCC4)cc3)n2)cccc1N1Cc2cc(C(C)(C)C)sc2C1=O [Example 42, 5-[3-(4-Amino-6-{[4-(morpholine-4-carbonyl)phenyl]amino}-1,3,5-triazin-2-yl)-2-methylphenyl]-2-(tert-butyl)-4H-thieno[2,3-c]pyrrol-6(5H)-one] | 6.5 nM
Nc1nc(Nc2ccc(CN3CCOCC3)cc2)nc(-c2cccc(N3CCc4cc(C5CC5)cc(F)c4C3=O)c2CO)n1 [Example 45, 2-[3-(4-Amino-6-{[4-(morpho-linomethyl)phe-nyl]amino}-1,3,5-tri-azin-2-yl)-2-(hydroxymeth-yl)phenyl]-6-cyclopro-pyl-8-fluoro-3,4-di-hydroisoquinolin-1(2H)-one] | 1.7 nM
Nc1nc(Nc2ccc(Cn3cncn3)cc2)nc(-c2cccc(N3CCc4cc(C5CC5)cc(F)c4C3=O)c2CO)n1 [Example 49, 2-{3-[4-({4-[(1H-1,2,4-Triazol-1-yl)methyl]phenyl}amino)-6-amino-1,3,5-triazin-2-yl]-2-(hydroxymethyl)phe-nyl}-6-cyclopropyl-8-fluoro-3,4-dihydroiso-quinolin-1(2H)-one] | 1.1 nM
Nc1nc(Nc2ccc(Cn3cccn3)cc2)nc(-c2cccc(N3CCc4cc(C5CC5)cc(F)c4C3=O)c2CO)n1 [Example 50, 2-{3-[4-({4-[(1H-Pyra-zol-1-yl)methyl]phenyl}amino)-6-amino-1,3,5-triazin-2-yl]-2-(hy-droxymethyl)phenyl}-6-cyclopropyl-8-fluoro-3,4-dihydroisoquino-lin-1(2H)-one] | 1 nM
Nc1nc(Nc2ccc(N3CCC(O)CC3)cc2)nc(-c2cccc(N3CCc4cc(C5CC5)cc(F)c4C3=O)c2CO)n1 [Example 52, 2-[3-(4-Amino-6-{[4-(4-hydroxypiperidin-1-yl)phenyl]amino}-1,3,5-triazin-2-yl)-2-(hy-droxymethyl)phenyl]-6-cyclopropyl-8-fluoro-3,4-dihydroisoquinolin-1(2H)-one] | 1.6 nM
Nc1nc(Nc2ccc(N3CCCC(O)C3)cc2)nc(-c2cccc(N3CCc4cc(C5CC5)cc(F)c4C3=O)c2CO)n1 (stereo not shown) [Example 53, 2-[3-(4-Amino-6-{[4-(3-hydroxypiperidin-1-yl)phenyl]amino}-1,3,5-triazin-2-yl)-2-(hy-droxymethyl)phenyl]-6-cyclopropyl-8-fluoro-3,4-dihydroisoquinolin-1(2H)-one] | 1.8 nM
CC(C)(C)c1cc2c(s1)C(=O)N(c1cccc(-c3nc(N)nc(Nc4ccc(N5CCOCC5)cc4)n3)c1CO)C2 [Example 73, 5-(3-{4-Amino-6-[(4-morpho-linophenyl)amino]-1,3,5-triazin-2-yl}-2-(hydroxymethyl)phe-nyl)-2-(tert-butyl)-4H-thieno[2,3-c]pyrrol-6(5H)-one] | 1.3 nM
COCCOc1ccc(Nc2nc(N)nc(-c3cccc(NC(=O)c4ccc(C(C)(C)C)cc4)c3CO)n2)cc1 [Example 74, N-[3-(4-Amino-6-{[4-(2-methoxyethoxy)phenyl]amino}-1,3,5-triazin-2-yl)-2-(hydroxymeth-yl)phenyl]-4-(tert-butyl) benzamide] | 0.7 nM
CC(C)(C)c1cc2c(s1)C(=O)N(c1cccc(-c3nc(N)nc(Nc4ccc(CN5CCOCC5)cc4)n3)c1CO)C2 [Example 77, 5-[3-(4-Amino-6-{[4-(morpho-linomethyl)phe-nyl]amino}-1,3,5-triazin-2-yl)-2-(hydroxymeth-yl)phenyl]-2-(tert-butyl)-4H-thieno[2,3-c]pyrrol-6(5H)-one] | 3.4 nM
CC(C)(C)c1ccc(C(=O)Nc2cccc(-c3nc(N)nc(Nc4ccc(OCCN5CCOCC5)cc4)n3)c2CO)cc1 [Example 78, N-[3-(4-Amino-6-{[4-(2-morpholinoethoxy)phe-nyl]amino}-1,3,5-tri-azin-2-yl)-2-(hydroxy-methyl)phenyl]-4-(tert-butyl)benzamide] | 1.2 nM
CC(C)(C)c1ccc(C(=O)Nc2cccc(-c3nc(N)nc(Nc4ccc(CN5CCOCC5)cc4)n3)c2CO)cc1 [Example 79, N-[3-(4-Amino-6-{[4-(morpho-linomethyl)phe-nyl]amino}-1,3,5-triazin-2-yl)-2-(hydroxymeth-yl)phenyl]-4-(tert-butyl)benzamide] | 0.6 nM
Cc1c(NC(=O)c2ccc(C(C)(C)C)cc2)cccc1-c1nc(N)nc(Nc2ccc(N3CCC(N4CCOCC4)CC3)cc2)n1 [Example 80, N-[3-(4-Amino-6-{[4-(4-morpholinopiperidin-1-yl)phenyl]amino}-1,3,5-triazin-2-yl)-2-methylphenyl]-4-(tert-butyl)benzamide] | 2.1 nM
Cc1c(NC(=O)c2ccc(C(C)(C)C)cc2)cccc1-c1nc(N)nc(Nc2ccc(N3CCCC(O)C3)cc2)n1 (stereo not shown) [Example 81, N-[3-(4-Amino-6-{[4-(3-hydroxypiperidin-1-yl)phenyl]amino}-1,3,5-triazin-2-yl)-2-meth-ylphenyl]-4-(tert-bu-tyl)benzamide] | 2.2 nM

Continued by falling IC50, values first:

IC50 | SMILES
5.8 nM | Cc1c(NC(=O)c2ccc(C(C)(C)C)cc2)cccc1-c1nc(N)nc(Nc2ccc(N3C[C@@H](C)O[C@@H](C)C3)cc2)n1 [Example 85, N-[3-(4-Amino-6-{[4-((2S, 6R)-2,6-dimethyl-morpholino)phenyl]ami-no}-1,3,5-triazin-2-yl)-2-methylphenyl]-4-(tert-butyl)benzamide]
5.2 nM | Nc1nc(Nc2ccc(N3CCOCC3)nc2)nc(-c2cccc(N3CCc4cc(C5CC5)cc(F)c4C3=O)c2CO)n1 [Example 46, 2-(3-{4-Amino-6-[(6-morpho-linopyridin-3-yl)amino]-1,3,5-triazin-2-yl}-2-(hydroxymeth-yl)phenyl)-6-cyclopro-pyl-8-fluoro-3,4-dihy-droisoquinolin-1(2H)-one]
5.1 nM | Cc1c(NC(=O)c2ccc(C(C)(C)C)cc2)cccc1-c1ncnc(Nc2ccc(C(=O)NCCN(C)C)cc2)n1 [Example 17, 4-(tert-Butyl)-N-(3-{4-[(4-{[2-(dimethylami-no)ethyl]carbamoyl}phe-nyl)amino]-1,3,5-tri-azin-2-yl)-2-methyl-phenyl)benzamide]
3.4 nM | COCCOc1ccc(Nc2nc(N)nc(-c3cccc(N4CCc5cc(C6CC6)cc(F)c5C4=O)c3CO)n2)cc1OCCOC [Example 48, 2-[3-(4-Amino-6-{[3,4-bis(2-methoxyethoxy)phenyl]amino}-1,3,5-tri-azin-2-yl}-2-(hydroxy-methyl)phenyl]-6-cyclo-propyl-8-fluoro-3,4-dihydroisoquinolin-1(2H)-one]
3.2 nM | Cc1c(NC(=O)c2cc3c(s2)CCCC3)cccc1-c1nc(N)nc(Nc2ccc(C(=O)N3CCOCC3)cc2)n1 [Example 66, N-[3-(4-Amino-6-{[4-(morpho-line-4-carbonyl)phenyl]amino}-1,3,5-triazin-2-yl)-2-methyl-phenyl]-4,5,6,7-tetra-hydrobenzo[b]thiophene-2-carboxamide]
2 nM | Nc1nc(Nc2cccc(Cn3cncn3)c2)nc(-c2cccc(N3CCc4cc(C5CC5)cc(F)c4C3=O)c2CO)n1 [Example 51, 2-{3-[4-({3-[(1H-1,2,4-Triazol-1-yl)methyl]phenyl}amino)-6-amino-1,3,5-triazin-2-yl]-2-(hydroxymethyl)phe-nyl}-6-cyclopropyl-8-fluoro-3,4-dihydroiso-quinolin-1(2H)-one]
1.8 nM | CN1CCN(C)C(c2ccc(Nc3nc(N)nc(-c4cccc(N5Cc6cc(C(C)(C)C)sc6C5=O)c4CO)n3)cc2)C1=O (stereo not shown) [Example 83, 5-[3-(4-Amino-6-{[4-(1,4-dimethyl-3-oxo-piperazin-2-yl)phenyl]ami-no}-1,3,5-triazin-2-yl)-2-(hydroxymethyl)phenyl]-2-(tert-butyl)-4H-thieno[2,3-c]pyr-rol-6(5H)-one]
1.6 nM | CN1CCN(C)C(c2ccc(Nc3nc(N)nc(-c4cccc(N5CCc6cc(C7CC7)cc(F)c6C5=O)c4CO)n3)cc2)C1=O (stereo not shown) [Example 47, 2-[3-(5-Amino-6-{[4-(1,4-dimethyl-3-oxopipera-zin-2-yl)phenyl]ami-no}-1,3,5-triazin-2-yl)-2-(hydroxymethyl)phenyl]-6-cyclopropyl-8-fluoro-3,4-dihydro-isoquinolin-1(2H)-one]
1.2 nM | Cc1c(NC(=O)c2ccc(C(C)(C)C)cc2)cccc1-c1nc(N)nc(Nc2ccc(CN3CCOCC3)cc2)n1 [Example 38, N-[3-(4-Amino-6-{[4-(mor-pholinomethyl)phe-nyl]amino}-1,3,5-triazin-2-yl)-2-methylphe-nyl]-4-(tert-butyl)benz-amide]
0.6 nM | CC(C)(C)c1ccc(C(=O)Nc2cccc(-c3nc(N)nc(Nc4ccc(O)cc4)n3)c2CO)cc1 [Example 65, N-(3-{4-Amino-6-[(4-hy-droxyphenyl)amino]-1,3,5-triazin-2-yl}-2-(hydroxymethyl)phenyl)-4-(tert-butyl)benza-mide]
